PMC4462585, “Synthesis and Biological Evaluation of 3-Alkyl-1,5-Diaryl-1H-Pyrazoles as Rigid Analogues of Combretastatin A-4 with Potent Antiproliferative Activity” (PLoS ONE, 2015)

Tests used:
[1] = test system: fibrosarcoma cell line HT-1080; assay: MTT antiproliferative assay, HT-1080; format: cell-based; details: Homo sapiens, 72 h drug exposure, triplicate, read-out: Antiproliferative activity (IC50 ± SD) HT-1080
From the text: (§1) Pulmonary adenocarcinoma cell lines (A549) and gastric adenocarcinoma cell lines (SGC-7901) were provided as gifts (purchased from the Cell Resource Center of Shanghai Institutes for Biological Sciences) from the China-Japan Research Institute of Medical and Pharmaceutical Sciences, Shenyang Pharmaceutical University. Fibrosarcoma cell lines (HT-1080) were purchased from the Cell Resource Center of Shanghai Institutes for Biological Sciences. All cells were maintained in DMEM containing 1% antibiotics (100 units of penicillin and […] per mL in 0.9% normal saline) and 10% foetal bovine serum in a humidified atmosphere containing 5% CO2 at 37°C.
(§2) Antiproliferative activities of CA-4 and the target compounds were measured using a colourimetric assay using 3-(4,5-dimethylthiazol-2yl-)-2,5-diphenyltetrazolium bromide (MTT). Approximately 3 × 10^4 cells were seeded in a 96-well plate. After 24 h of incubation at 37°C, cells were exposed to compounds of differing concentrations (0.0008 μg/mL, 0.004 μg/mL, 0.02 μg/mL, 0.10 μg/mL, 0.50 μg/mL, 2.5 μg/mL, 12.5 μg/mL, 62.5 μg/mL) for 72 h. After treatment, cells were washed with 1X PBS followed by addition of 100 μL of 0.05% MTT reagent to each well, followed by incubation for 4 h at 37°C. After incubation, the supernatant from each well was carefully removed and the formazan crystals were dissolved in 100 μL of DMSO. The colour density was measured spectrophotometrically at 490 nm using a microplate reader (SpectraMax Plus384, Molecular Devices Corp., USA). The percentage of cell growth inhibition was calculated as follow: inhibition ratio % = (Acontrol—Atreated) / Acontrol × 100%. The 50% inhibitory concentration (IC50) was defined as the concentration that reduced the absorbance of the untreated wells by 50% of the vehicle in the MTT assay.

[2] = test system: gastric adenocarcinoma cell line SGC-7901; assay: MTT antiproliferative assay, SGC-7901; format: cell-based; details: Homo sapiens, 72 h drug exposure, triplicate, read-out: Antiproliferative activity (IC50 ± SD) SGC-7901
From the text: as §1, §2

[3] = test system: pulmonary adenocarcinoma cell line A549; assay: MTT antiproliferative assay, A549; format: cell-based; details: Homo sapiens, 72 h drug exposure, triplicate, read-out: Antiproliferative activity (IC50 ± SD) A549
From the text: as §1, §2

[4] = test system: purified bovine tubulin; assay: Tubulin assembly (polymerization) assay, cell-free, fluorescence-based; format: biochemical; details: 37°C, IC50 calculated at 80 min, three experiments, read-out: Inhibition of tubulin polymerization IC50
Protocol: Fig 5 Dose-response effects of CA-4 (1), 7i and 7k on the inhibition of tubulin polymerization. Purified bovine tubulin and GTP were mixed in a 96-well plate. The reaction was initiated by warming the solution from 4°C to 37°C. DMSO was used as a vehicle control. The effect on the assembly of tubulin was monitored using a plate reader at 1 min intervals for 90 min at 37°C.
The effect of compounds 7i and 7k on the polymerization of purified brain tubulin was determined employing a fluorescence-based tubulin polymerization assay kit (Cat. #BK011P, Cytoskeleton, Inc., USA) according to the manufacturer’s protocol. Tubulin was re-suspended in ice-cold G-PEM buffer (80 mM PIPES, 2 mM MgCl2, 0.5 mM EGTA, 1 mM GTP, 20% (v/v) glycerol) and added to wells on a 96-well plate containing the designated concentration of drugs or vehicle. Samples were mixed well, and tubulin assembly was monitored (emission wavelength: 450 nm; excitation wavelength: 360 nm) at 1 min intervals for 90 min at 37°C using a plate reader ([…]). IC50 values were calculated at 80 min using SPSS software in three experiments.

[5] = test system: microtubule network in HT-1080 cells; assay: Immunostaining of tubulin assembly in HT-1080 cells; format: cell-based, human; details: 2-fold IC50 concentration (7k 0.18 μM), 48 h
Protocol: Microtubules were labelled using the indirect immuno-fluorescence method and were analysed by fluorescence microscopy. […] HT-1080 cells were treated with 7k (0.18 μM) for 48 h (scale bar = 10 μm). The left, middle and right panels represent tubulin assembly stained with FITC, DAPI and a merge of the corresponding left and middle panels, respectively. Images were taken using a confocal microscope. Immunostaining was performed to detect microtubule-associated tubulin protein after exposure to CA-4 and compound 7k. The SGC-7901 and HT-1080 cells were seeded at a density of 1 × 10^4 per well on a 24-well plate and grown for 24 h. […] The control and treated cells were fixed in acetone:methanol (1:1) for 30 min at -20°C, washed with 1X PBS, incubated for 30 min in 1X PBS containing 2% BSA, and then 0.1% Triton X-100. The primary tubulin antibody (Cell Signaling Technology, MA, USA) was diluted (1:100) with 2% BSA in 1X PBS and incubated overnight at 4°C. The cells were washed with 1X PBS to remove unbound primary antibody, and then cells were incubated for 3 h at 37°C with FITC-conjugated anti-mouse secondary antibody diluted 1:1000 with 2% BSA in PBS.

[6] = test system: microtubule network in SGC-7901 cells; assay: Immunostaining of tubulin assembly in SGC-7901 cells; format: cell-based, human; details: 2-fold IC50 concentration (7k 0.14 μM), 48 h
Protocol: Microtubules were labelled using the indirect immuno-fluorescence method and were analysed by fluorescence microscopy. […] SGC-7901 cells were treated with 7k (0.14 μM) for 48 h (scale bar = 10 μm). The left, middle and right panels represent the tubulin assembly stained with FITC, DAPI and a merge of the corresponding left and middle panels, respectively. Images were taken using a confocal microscope. Immunostaining was performed to detect microtubule-associated tubulin protein after exposure to CA-4 and compound 7k. The SGC-7901 and HT-1080 cells were seeded at a density of 1 × 10^4 per well on a 24-well plate and grown for 24 h. […] The control and treated cells were fixed in acetone:methanol (1:1) for 30 min at -20°C, washed with 1X PBS, incubated for 30 min in 1X PBS containing 2% BSA, and then 0.1% Triton X-100. The primary tubulin antibody (Cell Signaling Technology, MA, USA) was diluted (1:100) with 2% BSA in 1X PBS and incubated overnight at 4°C. The cells were washed with 1X PBS to remove unbound primary antibody, and then cells were incubated for 3 h at 37°C with FITC-conjugated anti-mouse secondary antibody diluted 1:1000 with 2% BSA in PBS.

[7] = test system: three human cancer cell lines (SGC-7901, A549 and HT-1080); assay: MTT antiproliferative assay, three human cancer cell lines; format: cell-based; details: HT-1080, SGC-7901, A549, 72 h, read-out: Antiproliferative IC50 values, range over the three cancer cell lines
From the text: as §1
Antiproliferative activities of CA-4 and the target compounds were measured using a colourimetric assay using 3-(4,5-dimethylthiazol-2yl-)-2,5-diphenyltetrazolium bromide (MTT). Approximately 3 × 10^4 cells were seeded in a 96-well plate. After 24 h of incubation at 37°C, cells were exposed to compounds of differing concentrations (0.0008 μg/mL, 0.004 μg/mL, 0.02 μg/mL, 0.10 μg/mL, 0.50 μg/mL, 2.5 μg/mL, 12.5 μg/mL, 62.5 μg/mL) for 72 h. […] The colour density was measured spectrophotometrically at 490 nm using a microplate reader (SpectraMax Plus384, Molecular Devices Corp., USA). The percentage of cell growth inhibition was calculated as follow: inhibition ratio % = (Acontrol—Atreated) / Acontrol × 100%. […]

IC50 [1] [nM]	IC50 [2] [nM]	IC50 [3] [nM]	IC50 [4] [nM]	melting point [°C]	SMILES	Effect on microtubule network (immunofluorescence), HT-1080 [5]	Effect on microtubule network (immunofluorescence), SGC-7901 [6]	IC50 [7] [nM]
930 ± 130	275 ± 20	1120 ± 120	2500	130 to 131	COc1ccc(-c2cc(C)nn2-c2cc(OC)c(OC)c(OC)c2)cc1O [Compound 7i, 3-Methyl-5-(3-hydroxy-4-methoxyphenyl)-1-(3,4,5-trimethoxyphenyl)-1H-pyrazole]	–	–	–
122 ± 13	76 ± 9	96 ± 11	1700	129 to 130	COc1ccc(-c2cc(C)nn2-c2cc(OC)c(OC)c(OC)c2)cc1N [Compound 7k, 3-Methyl-5-(3-amino-4-methoxyphenyl)-1-(3,4,5-trimethoxyphenyl)-1H-pyrazole]	disruption of the tubulin network	disruption of the tubulin network	76 to 120

SMILES	IC50 [1] [nM]	IC50 [2] [nM]	IC50 [3] [nM]	IC50 [4] [nM]	melting point [°C]	Effect on microtubule network (immunofluorescence), HT-1080 [5]	Effect on microtubule network (immunofluorescence), SGC-7901 [6]	IC50 [7] [nM]
COc1ccc(/C=C\c2cc(OC)c(OC)c(OC)c2)cc1O [Compound 1, Combretastatin A-4]	23 ± 12	16 ± 10	35 ± 9	900	–	disruption of the tubulin network	disruption of the tubulin network	16 to 35
